Numbers after ± are expanded uncertainties. One block for each compound: values may come before it.
Experiments:
[1] = refractive index (Na D-line) (dimensionless); details: 101.33 kPa, Liquid, Standard Abbe refractometry
[2] = Liquid; for mass density: 101.33 kPa
[3] = 298.15 K, Vibrating tube method

refractive index ([1]; 293.15 K): 1.4511 ± 0.0008 | mass density [2, 3]: 972 ± 2 kg/m3 | vapor or sublimation pressure ([2]; 409.35 K): 95.5 ± 4 kPa
Structure (SMILES): CC(=O)CC(C)=O [2,4-pentanedione]

refractive index ([1]; 293.15 K): 1.369 ± 0.0008 | mass density ([2]; 303.15 K, Vibrating tube method): 742 ± 2 kg/m3 | vapor or sublimation pressure ([2]; 326.45 K): 95.5 ± 4 kPa
Structure (SMILES): COC(C)(C)C [2-methoxy-2-methylpropane]

refractive index ([1]; 298.15 K): 1.3416 ± 0.0008 | mass density ([2]; 298.15 K): 776.5 ± 2 kg/m3 | vapor or sublimation pressure ([2]; 352.15 K): 95.5 ± 4 kPa | vapor or sublimation pressure ([2]; 352.55 K): 95.5 ± 4 kPa
Structure (SMILES): CC#N [acetonitrile]

refractive index ([1]; 298.15 K): 1.5142 ± 0.0008 | mass density [2, 3]: 989.3 ± 2 kg/m3 | vapor or sublimation pressure ([2]; 424.65 K): 95.5 ± 4 kPa
Structure (SMILES): COc1ccccc1 [anisole]

Structure (SMILES): Brc1ccccc1 [bromobenzene]
refractive index ([1]; 298.15 K): 1.5571 ± 0.0008 | mass density [2, 3]: 1488.3 ± 2 kg/m3 | vapor or sublimation pressure ([2]; 427.05 K): 95.5 ± 4 kPa

refractive index ([1]; 298.15 K): 1.3751 ± 0.0008 | mass density [2, 3]: 781.3 ± 2 kg/m3 | vapor or sublimation pressure ([2]; 354.05 K): 95.5 ± 4 kPa
Structure (SMILES): CC(C)O [propan-2-ol]

refractive index ([1]; 298.15 K): 1.3825 ± 0.0008 | mass density [2, 3]: 933.4 ± 2 kg/m3 | vapor or sublimation pressure ([2]; 439.55 K): 95.5 ± 4 kPa
Structure (SMILES): CCO[Si](OCC)(OCC)OCC [tetraethoxysilane]

Source: the NIST ThermoML archive (doi:10.1016/j.jct.2007.03.007)
